Values quoted from earlier work as cited in patent US20080260691A1 (priority 2004, published 2008).
Blank lines part the entries; values can stand above or below the molecule they belong to.

Experiments:
[1] = in vivo
[2] = not given; remark: listed apart in the source
[3] = all animal species exposed

in vitro hydrolysis t½ rat hepatic microsomes: 30 min
Compound: N[C@@H](CCC(=O)O)C(=O)O [Glu]

in vitro hydrolysis t½ rat hepatic microsomes: 14 min
Compound: NCCCC[C@H](N)C(=O)O [Lys]

in vitro hydrolysis t½ rat hepatic microsomes: 30 min
Compound: N[C@@H](Cc1ccccc1)C(=O)O [Phe]

Compound: N[C@@H](Cc1ccc(O)cc1)C(=O)O [Tyr]
in vitro hydrolysis t½ rat hepatic microsomes: 5 min

bioavailability [1]: 15-30%
Compound: Nc1nc2c(ncn2COCCO)c(=O)[nH]1 [acyclovir]

Compound: NC(=O)c1ncn([C@@H]2O[C@H](CO)[C@@H](O)[C@H]2O)n1 [ribavirin]
total bioavailability, average ([2]; averages): 64% | multiple-dose half-life ([2]; multiple-dose): 12 days | portion of drug excreted in urine as intact drug or as metabolites ([2]; oral, within 72-80 hours): approx. 53% | bioavailability (low and variable) ([2]; range): 33-69% | portion of a single oral dose excreted in feces ([2]; single oral dose, within 72 hours): Approximately 15% | teratogenic and/or embryocidal effects [3]: Significant teratogenic and/or embryocidal effects

bioavailability [1]: 54%
Compound: CC(C)[C@H](N)C(=O)OCCOCn1cnc2c(=O)[nH]c(N)nc21 [valacyclovir]
